Assay results published in US10045978B2 (AB SCIENCE, priority 2010, dated 2018).

Tested on: patients with indolent forms of mastocytosis with handicap, D816V absent in at least one infiltrated organ
Assay: Example 1 phase 2a study, response assessment
Assay type: in vivo, human
Design: Hamilton rating Δ Mean ± SD / QLQ-C30 Symptom Δ Mean ± SD / QLQ-C30 Global Health Δ Mean ± SD / AFIRMM Δ Mean ± SD / Hamilton rating ΔMean ± SD / QLQC30 Symptom ΔMean ± SD / QLQC30 Global Health ΔMean ± SD / AFIRMM ΔMean ± SD: scale not given here
Details: for AFIRMM ΔMean ± SD / Flushes per day ΔMean ± SD / Hamilton rating ΔMean ± SD / Micturitions per day ΔMean ± SD / OPA Score Change: (2, 3, 4) to (0, 1) / OPA Score No change / Pruritus ΔMean ± SD / QLQC30 Functional ΔMean ± SD / QLQC30 Global Health ΔMean ± SD / QLQC30 Symptom ΔMean ± SD / Stools per day ΔMean ± SD: extension-phase cohort
Procedure: Eligible patients were aged >18 years, had previously documented indolent systemic, smoldering systemic or cutaneous mastocytosis as per the WHO classification with associated disability as the result of mast cell released mediators and had not responded to usual symptomatic treatments for more the 6 months. […] A single occurrence of this criterion was deemed sufficient for inclusion and so no systematic examination of multiple organs was carried out specifically for this study.
Patients were classified as having a handicap if after appropriate symptomatic treatments they fulfilled at least one of the following a priori criteria: number of flushes/day ≥1; pruritus score ≥6; number of stools ≥4/day; micturition frequency ≥8/day; Hamilton rating for depression ≥10; or EORTC quality-of-life questionnaire (QLQ-C30) symptom score, functional score, and global health status of >0. Patients were excluded if they experienced inadequate organ function defined via blood test levels, or an Eastern Cooperative Oncology Group performance status >2. Other exclusion criteria included: life expectancy <6 months, severe or uncontrolled medical disease, and patients who were pregnant or nursing.
In accordance to the AFIRMM study (Hermine O, et al., 2008, PLoS ONE. 3:e2266), evaluation of treatment response was based upon the change of clinical symptoms associated with a patient's handicaps at week 12 (W12) relative to baseline. Primary endpoints were daily frequency of flushes; pruritus score; and Hamilton rating for depression, as well as, daily stool and micturition frequencies; QLQ-C30 global health status, functional, and symptom scores. […] For those patients entering the extension phase, assessments were performed every 4 weeks for the first 3 months of extension, and every 12 weeks thereafter. Secondary endpoints included the W12 assessment of AFIRMM score (a validated questionnaire assessing the self-perceived severity of mastocytosis) (Hermine O, et al., 2008, PLoS ONE. 3:e2266); overall patient assessment (OPA) score; tryptase levels; and change in organ mast cell infiltration. Determination of D816V mutation and serum tryptase levels was conducted following procedures described previously (Hermine O, et al., 2008, PLoS ONE. 3:e2266). Overall clinical response analysis at W12 defined a responder as having an improvement of ≥50% in baseline handicap of a key response endpoint (Hamilton rating, flushes, or pruritus) without deterioration or emergence of handicap. Any patient with deterioration of ≥50% in any handicap, and/or with emergence of a new handicap with an increase of ≥50% from baseline was considered as worsening. Any patient who discontinued the study before W12 was considered a non responder. Discrimination between dose regimens was investigated by analyses of the ‘time to first response’, according to the initial dosage, and ‘dose at time of first response’ in key response endpoints.
Response analysis was performed on subgroups of the ITT population according to a patient's handicap at baseline and for whom response was evaluated at W12; referred to hereafter as the handicap-related population. No data imputation was implemented. The per protocol (PP) population was defined as a subset of a given handicap-related population, which in addition had presented no major protocol deviations. Summary response data are presented using descriptive statistics with mean improvement compared to baseline in each handicap cohort, regardless of disease classification. The appropriate Wilcoxon or Fisher tests were used for group comparison of baseline disease, demographic characteristics between dose level groups and response relative to baseline. Subpopulation analysis was also conducted according to initial c-Kit status.

## Cc1ccc(NC(=O)c2ccc(CN3CCN(C)CC3)cc2)cc1Nc1nc(-c2cccnc2)cs1 [masitinib, 4-(4-methylpiperazin-1-ylmethyl)-N-[4-methyl-3-(4-pyridin-3ylthiazol-2-ylamino)phenyl]benzamide]
At 6.0 mg/kg/day
  first response events: AFIRMM score: 5
  first response events: Cumulative Frequency: 96%
  first response events: Flush: 4
  first response events: Hamilton: 4
  first response events: Micturition: 1
  first response events: OPA score: 4
  first response events: Pruritus: 4
  first response events: QLQ30 Functional: 1
  first response events: QLQ30 Global: 2
  first response events: QLQ30 Symptom: 1
  first response events: Stool: 2
  first response events: Total events: 28
At 7.5 mg/kg/day
  first response events: Cumulative Frequency: 100%
  first response events: Flush: 1
  first response events: OPA score: 1
  first response events: QLQ30 Symptom: 1
  first response events: Total events: 3
W4
  AFIRMM ΔMean ± SD: −44.5 ± 51.6
  Flushes per day ΔMean ± SD: −1.1 ± 1.8
  Hamilton rating ΔMean ± SD: −5.9 ± 3.2
  Micturitions per day ΔMean ± SD: −2.5 ± 3.3
  OPA Score Change: (2, 3, 4) to (0, 1): 3 (18%)
  OPA Score No change: 14 (82%)
  Pruritus ΔMean ± SD: −2.8 ± 3.7
  QLQC30 Functional ΔMean ± SD: 8.7 ± 18.2
  QLQC30 Global Health ΔMean ± SD: 8.3 ± 25.5
  QLQC30 Symptom ΔMean ± SD: −4.1 ± 7.8
  Stools per day ΔMean ± SD: −4.3 ± 2.6
W12
  AFIRMM ΔMean ± SD: −61.9 ± 45.9
  Flushes per day ΔMean ± SD: −1.6 ± 1.5
  Hamilton rating ΔMean ± SD: −4.6 ± 4.9
  Micturitions per day ΔMean ± SD: −5.4 ± 2.6
  OPA Score Change: (2, 3, 4) to (0, 1): 3 (20%)
  OPA Score No change: 16 (80%)
  Pruritus ΔMean ± SD: −3.3 ± 3.0
  QLQC30 Functional ΔMean ± SD: 11.6 ± 16.4
  QLQC30 Global Health ΔMean ± SD: 16.1 ± 26.4
  QLQC30 Symptom ΔMean ± SD: −7.0 ± 15.2
  Stools per day ΔMean ± SD: −4.2 ± 3.0
W24
  AFIRMM ΔMean ± SD: −66.0 ± 29.9
  Flushes per day ΔMean ± SD: −1.9 ± 3.1
  Hamilton rating ΔMean ± SD: −2.8 ± 9.2
  Micturitions per day ΔMean ± SD: −4.3 ± 5.9
  OPA Score Change: (2, 3, 4) to (0, 1): 0 (0%)
  OPA Score No change: 3 (100%)
  Pruritus ΔMean ± SD: −5.1 ± 4.7
  QLQC30 Functional ΔMean ± SD: 15.3 ± 10.6
  QLQC30 Global Health ΔMean ± SD: 18.8 ± 27.5
  QLQC30 Symptom ΔMean ± SD: −19.9 ± 8.2
  Stools per day ΔMean ± SD: −2.5 ± 2.1
W36
  AFIRMM ΔMean ± SD: −62.4 ± 31.8
  Flushes per day ΔMean ± SD: −2.1 ± 3.5
  Hamilton rating ΔMean ± SD: −10.3 ± 5.1
  Micturitions per day ΔMean ± SD: −6.5 ± 6.4
  OPA Score Change: (2, 3, 4) to (0, 1): 1 (20%)
  OPA Score No change: 4 (80%)
  Pruritus ΔMean ± SD: −6.9 ± 3.5
  QLQC30 Functional ΔMean ± SD: 5.8 ± 16.7
  QLQC30 Global Health ΔMean ± SD: 21.7 ± 26.1
  QLQC30 Symptom ΔMean ± SD: −14.4 ± 6.5
  Stools per day ΔMean ± SD: −0.7 ± 3.2
W48
  AFIRMM ΔMean ± SD: −64.3 ± 48.5
  Flushes per day ΔMean ± SD: −2.8 ± 2.9
  Hamilton rating ΔMean ± SD: −11.5 ± 6.4
  Micturitions per day ΔMean ± SD: −7.0 ± 2.8
  OPA Score Change: (2, 3, 4) to (0, 1): 2 (33%)
  OPA Score No change: 4 (67%)
  Pruritus ΔMean ± SD: −5.2 ± 4.4
  QLQC30 Functional ΔMean ± SD: 0.7 ± 16.7
  QLQC30 Global Health ΔMean ± SD: 12.5 ± 14.7
  QLQC30 Symptom ΔMean ± SD: −10.3 ± 6.4
  Stools per day ΔMean ± SD: −2.0 ± 0.0
W60
  AFIRMM ΔMean ± SD: −61.1 ± 32.9
  Flushes per day ΔMean ± SD: −2.3 ± 2.9
  Hamilton rating ΔMean ± SD: −8.3 ± 7.5
  Micturitions per day ΔMean ± SD: −6.0 ± 4.2
  OPA Score Change: (2, 3, 4) to (0, 1): 4 (44%)
  OPA Score No change: 5 (56%)
  Pruritus ΔMean ± SD: −4.6 ± 4.3
  QLQC30 Functional ΔMean ± SD: 11.6 ± 11.2
  QLQC30 Global Health ΔMean ± SD: 23.1 ± 25.3
  QLQC30 Symptom ΔMean ± SD: −12.9 ± 8.3
  Stools per day ΔMean ± SD: −4.7 ± 2.9
